Measurements: article PMC6929626, “PET/MRI enables simultaneous in vivo quantification of β-cell mass and function” (Theranostics, 2020)

System: VDCC
Assay: Manganese-enhanced MRI (T1 maps, R1, estimated [Mn]) of pancreas and insulinomas
Type: in vivo, mice
Conditions: for [Mn]: estimated from (R1post-R1pre)/r1
Method: In brief, mice were fasted for 4-6 hours and anesthetized with 1-2% isoflurane/O2 gas mixture (Vetland, Louisville, KY, USA) before the in vivo measurements. A tail vein catheter was initially placed for the co-injection of 50 µL of tracer solution (0.12 MBq/g bodyweight) and 50 µL of MnCl2:Bicine solution (75 µmol/kg body weight). The animals were placed in supine position on the bed in order to attenuate the motion artifacts rising from the respiratory movements. Thus, [^64Cu]Ex4 and MnCl2 solution were co-injected i.v. as a bolus a few seconds after the beginning of dynamic PET measurements. An additional i.v. injection of glucose solution (1.5 g/kg) was performed five minutes after the PET tracer and MR contrast agent injection to enhance the metabolic uptake of Mn by the pancreas. PET quantification was performed by 20-min static frames acquired simultaneously with 7T MRI scanner using a compatible PET-insert or consecutively using an Inveon-PET scanner (Inveon Dedicated PET, Siemens Healthineers, Knoxville, TN, USA). MR images were acquired using a mouse body quadrature volume RF-resonator with an inner diameter of 40 mm (MT0205, Bruker) on a 7 T Preclinical MR scanner (BioSpec 70/30, Bruker BioSpin MRI GmbH, Ettlingen, DE). During the acquisition, we monitored the breathing with an MR-compatible breathing sensor. The body temperature was maintained at 37 °C using a water-based warming pad.
In vivo MR measurement started with the acquisition of a rapid acquisition with relaxation enhancement (RARE) turbo-spin-echo (TSE) sequence with a large field of view to perform whole-body imaging with the following MR parameters: fat suppression module, repetition time (TR)/echo time (TE)=800/30.8 ms, respectively, field of view (FoV)=64×32×23 mm^3, matrix size 256×128, one average, bandwidth (BW)=75 kHz, RARE Factor (RF)=16 and an isotropic resolution of 0.25 mm. Then, we acquired consecutive RF-spoiled and slab selective gradient-echo (GRE) pulse sequences with short TR and keeping at the minimum the TE and using the following MR parameters: TR/TE=10/1.9 ms, FoV=34×34×17 mm^3, matrix size 128×128, two averages, BW=75 kHz, Sharpness=7 and approximatively 3 min of acquisition time per scan. Quantification of T1 was calculated by the acquisition of either two flip angles (4°, 22°), 0.27×0.27 mm^2 of in-plane resolution and 0.53 mm of slice thickness, or three flip angles (4°, 14°, 27°) with an isotropic resolution of 0.27 mm as described in Table 1.
The volume of interest (VOI) for the entire pancreas (Pancreas^Control; Pancreas^RIP1-Tag2) and the detected insulinomas (Insulinomas^RIP1-Tag2) were manually drawn in Inveon Research Workplace (Siemens Heathineers) after co-registration of the PET images. The T1-w images and the T1 maps were as well co-registered and used as anatomical references. The co-registered VOIs were exported and analyzed in MATLAB (R2013b; The MathWorks, Natick, MA, USA) using an in-house script. The percent injected dose per mL (%ID/mL) of the PET tracer was calculated voxel-wise by adjusting the radioactivity units (kBq/mL) for the injected activity and the half-life of ^64Cu (t1/2=12.7 h). On the other hand, the longitudinal relaxation rate (R1=1/T1) was calculated from the respective region drawn on the T1 maps. For the quantification, we considered voxels with R1 values between 0.4 and 10 s^-1. The estimated concentrations of Mn ([Mn]) were also calculated voxel-wise by the subtraction image acquired before and after the injection of MR-contrast agent and using the relaxivity (r1) of MnCl2:Bicine ([Mn]∝∆R1=(R1post-R1pre)/r1), which was calculated separately in a phantom study (Method S1 and Fig. S10). The indexes of [Mn] after 24 h were calculated using the overall mean of R1 obtained before and after 24 h, due to the different anatomical localization of the pancreata. […]

MnCl2:Bicine was tested, and the “[Mn]” value (Table S1, VOI Insulinomas 10-wk, 1 h, n=3/4) was 1.4 ± 0.2 mM×10^-1, the “log10(R1)×10^1” value (Table S1, VOI Insulinomas 10-wk, 1 h, group mean ± SD of medians, n=3/4) was 1.8 ± 0.2 and the “[Mn]” value (Table S1, VOI Insulinomas 10-wk, 24 h, n=3/3) was 0.8 ± 0.2 mM×10^-1. For the same substance, the “log10(R1)×10^1” value (Table S1, VOI Insulinomas 10-wk, 24 h, group mean ± SD of medians, n=3/3) was 0.5 ± 0.5, the “[Mn]” value (Table S1, VOI Insulinomas 13-wk, 1 h, n=3/4) was 0.9 ± 0.4 mM×10^-1 and the “log10(R1)×10^1” value (Table S1, VOI Insulinomas 13-wk, 1 h, group mean ± SD of medians, n=3/4) was 0.6 ± 1.1. For the same substance, the “[Mn]” value (Table S1, VOI Insulinomas 13-wk, 24 h, n=3/3) was 0.3 ± 0.4 mM×10^-1, the “log10(R1)×10^1” value (Table S1, VOI Insulinomas 13-wk, 24 h, group mean ± SD of medians, n=3/3) was 1.6 ± 0.2 and the “[Mn]” value (Table S1, VOI Pancreas Control, 1 h, group mean ± SD, n=3/4) was 1.8 ± 0.2 mM×10^-1. For the same substance, the “log10(R1)×10^1” value (Table S1, VOI Pancreas Control, 1 h, group mean ± SD of medians, n=3/4) was 2.7 ± 0.3, the “[Mn]” value (Table S1, VOI Pancreas Control, 24 h, group mean ± SD, n=3/3) was 0.6 ± 0.2 mM×10^-1 and the “log10(R1)×10^1” value (Table S1, VOI Pancreas Control, 24 h, group mean ± SD of medians, n=3/3) was 1.0 ± 0.8. For the same substance, the “[Mn]” value (Table S1, VOI Pancreas RIP1-Tag2 10-wk, 1 h, n=3/4) was 1.2 ± 0.2 mM×10^-1, the “log10(R1)×10^1” value (Table S1, VOI Pancreas RIP1-Tag2 10-wk, 1 h, group mean ± SD of medians, n=3/4) was 1.5 ± 0.6 and the “[Mn]” value (Table S1, VOI Pancreas RIP1-Tag2 10-wk, 24 h, n=3/3) was 0.4 ± 0.1 mM×10^-1. The “log10(R1)×10^1” value (Table S1, VOI Pancreas RIP1-Tag2 10-wk, 24 h, group mean ± SD of medians, n=3/3) was 0.0 ± 0.2, the “[Mn]” value (Table S1, VOI Pancreas RIP1-Tag2 13-wk, 1 h, n=3/4) was 1.0 ± 0.5 mM×10^-1 and the “log10(R1)×10^1” value (Table S1, VOI Pancreas RIP1-Tag2 13-wk, 1 h, group mean ± SD of medians, n=3/4) was 0.9 ± 1.6. For the same substance, the “[Mn]” value (Table S1, VOI Pancreas RIP1-Tag2 13-wk, 24 h, n=3/3) was 0.5 ± 0.4 mM×10^-1, the “log10(R1)×10^1” value (Table S1, VOI Pancreas RIP1-Tag2 13-wk, 24 h, group mean ± SD of medians, n=3/3) was 0.1 ± 0.3 and the “log10(R1)×10^1” value (VOI Insulinomas RIP1-Tag2 10-15 wk pooled, 1 h after i.v. 75 µmol/kg, mean ± SD) was 1.2 ± 1.2. For the same substance, the “log10(R1)×10^1” value (VOI Insulinomas RIP1-Tag2 10-15 wk pooled, 24 h after i.v. 75 µmol/kg, mean ± SD) was 0.4 ± 0.5, the “log10(R1)×10^1” value (VOI Pancreas Control, 1 h after i.v. 75 µmol/kg, 7 T, three flip angles, R1=1/T1, mean ± SD, n=3) was 3.0 ± 0.7 and the “log10(R1)×10^1” value (VOI Pancreas Control, 24 h after i.v. 75 µmol/kg, 7 T, three flip angles, mean ± SD, n=6) was 0.1 ± 0.6. The “log10(R1)×10^1” value (VOI Pancreas RIP1-Tag2 10-15 wk pooled, 1 h after i.v. 75 µmol/kg, mean ± SD, n=7) was 1.2 ± 1.1, the “log10(R1)×10^1” value (VOI Pancreas RIP1-Tag2 10-15 wk pooled, 24 h after i.v. 75 µmol/kg, mean ± SD, n=13) was -0.1 ± 0.4 and the “[Mn] estimated in vivo, times lower in detected insulinomas than in pancreas of control mice” value (early time points (1 h)) was about 2 times.
